Data taken from US7442715B2, “Thiazole derivatives” (Astellas Pharma Inc., priority 2003, dated 2008).
Where a name gives a salt, the structure may show the parent alone.

What was measured:
Human plasma SSAO = molecular target: T1, Human plasma SSAO (Homo sapiens, UniProt Q16853); assay: VAP-1 enzyme (SSAO) activity in human plasma, radiochemical-enzyme assay with 14C-benzylamine; format: biochemical
T1 construct: The enzyme suspension prepared from blood plasma was pre-incubated with Compound A; from tissue; host or cells: human blood plasma
T1 sequence (Q16853 29-763 limits assumed): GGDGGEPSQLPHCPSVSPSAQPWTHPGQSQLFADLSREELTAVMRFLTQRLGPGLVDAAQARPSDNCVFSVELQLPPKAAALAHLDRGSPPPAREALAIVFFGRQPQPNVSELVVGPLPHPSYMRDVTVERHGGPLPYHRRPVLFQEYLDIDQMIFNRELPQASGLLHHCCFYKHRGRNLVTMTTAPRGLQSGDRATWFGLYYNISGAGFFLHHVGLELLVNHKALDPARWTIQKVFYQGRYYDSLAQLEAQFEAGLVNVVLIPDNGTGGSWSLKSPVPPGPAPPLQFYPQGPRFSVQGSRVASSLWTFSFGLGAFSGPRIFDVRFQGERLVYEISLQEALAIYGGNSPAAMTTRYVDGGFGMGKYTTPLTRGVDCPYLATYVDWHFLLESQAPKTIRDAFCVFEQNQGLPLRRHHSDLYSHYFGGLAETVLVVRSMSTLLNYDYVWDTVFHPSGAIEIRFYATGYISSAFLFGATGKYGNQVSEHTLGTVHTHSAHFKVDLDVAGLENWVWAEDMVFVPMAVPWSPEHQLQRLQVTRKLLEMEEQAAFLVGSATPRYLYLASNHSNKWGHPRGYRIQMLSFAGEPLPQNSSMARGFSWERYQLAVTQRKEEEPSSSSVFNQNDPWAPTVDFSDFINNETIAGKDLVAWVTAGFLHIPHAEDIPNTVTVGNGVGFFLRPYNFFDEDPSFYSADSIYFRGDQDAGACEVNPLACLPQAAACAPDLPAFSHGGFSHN
Method: (§1) VAP-1 enzyme (SSAO) activity in both human and rat plasma was determined by a radiochemical-enzyme assay using ^14C-benzylamine as artificial substrate. The enzyme suspension prepared from blood plasma was pre-incubated with Compound A in 96-well microplate at room temperature for 30 min. The enzyme suspension was then incubated with ^14C-benzylamine (2×10^−5 mol/l final concentration) in a final volume of 50 μl at 37° C. for 1 hour. The enzyme reaction was terminated by adding 2 mol/l (50 μl) citric acid. The oxidized products were directly extracted into a 200 μl toluene scintillator, and its radioactivity was measured by a scintillation spectrometer. Monoamine oxidase (MAO) and diamine oxidase (DAO, histaminase) activities were also determined by similar method using ^14C-phenylethylamine and ^14C-putrescine as substrate, respectively. Cloned DAO from cDNA libraries was used in human DAO assay. Inhibition activity was expressed as IC50 (μmol/l) value.

Rat plasma SSAO = molecular target: T2, Rat plasma SSAO (Rattus norvegicus, UniProt O08590); assay: VAP-1 enzyme (SSAO) activity in rat plasma, radiochemical-enzyme assay with 14C-benzylamine; format: biochemical
T2 construct: The enzyme suspension prepared from blood plasma was pre-incubated with Compound A; from tissue; host or cells: rat blood plasma
T2 sequence (O08590 29-763 limits assumed): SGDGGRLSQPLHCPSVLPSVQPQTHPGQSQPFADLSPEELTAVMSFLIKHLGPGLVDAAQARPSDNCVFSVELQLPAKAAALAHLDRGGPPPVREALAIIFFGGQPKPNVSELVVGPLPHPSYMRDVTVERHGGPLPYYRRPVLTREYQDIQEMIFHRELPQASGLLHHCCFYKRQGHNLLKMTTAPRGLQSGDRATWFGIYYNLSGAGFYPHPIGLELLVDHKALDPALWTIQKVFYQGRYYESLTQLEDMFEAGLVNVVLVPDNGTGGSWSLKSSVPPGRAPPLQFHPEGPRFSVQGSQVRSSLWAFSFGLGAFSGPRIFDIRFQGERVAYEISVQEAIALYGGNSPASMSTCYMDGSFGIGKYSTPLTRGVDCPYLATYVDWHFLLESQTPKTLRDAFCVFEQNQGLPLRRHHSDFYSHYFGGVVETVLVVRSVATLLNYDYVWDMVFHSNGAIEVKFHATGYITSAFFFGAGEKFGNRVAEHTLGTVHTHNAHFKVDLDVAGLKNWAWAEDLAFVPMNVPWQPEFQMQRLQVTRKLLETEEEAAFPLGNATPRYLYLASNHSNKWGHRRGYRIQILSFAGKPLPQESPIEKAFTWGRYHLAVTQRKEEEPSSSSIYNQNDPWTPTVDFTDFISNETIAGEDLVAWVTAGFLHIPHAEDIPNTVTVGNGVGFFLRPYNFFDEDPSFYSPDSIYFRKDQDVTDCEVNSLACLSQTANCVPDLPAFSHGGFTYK
Method: as §1

plasma SSAO = molecular target: T3, plasma SSAO (Rattus norvegicus, UniProt O08590); assay: Plasma SSAO activity in STZ-induced diabetic rats after treatment; format: in vivo
T3 construct: from tissue; host or cells: plasma of STZ-induced diabetic rats
T3 sequence (O08590 29-763 limits assumed): T2 sequence (O08590 29-763 limits assumed)
Method: Diabetes in rat was induced with an intraperitoneal (i.p.) injection of 65 mg/ml/kg of streptozotocin (STZ) in 2 mmol/l citrate buffer (pH 4.5) after a 20-h fast. At the same time control rat were injected with an equal volume of 2 mmol/l citrate buffer. Plasma glucose level was checked by a calorimetric method. At day 3 of STZ treatment, the rat was diagnosed with diabetes showing a plasma glucose level of 350 mg/dl.
The treatment of Compound A was given daily from 2 weeks after STZ treatment for 2 weeks. At 24 hrs after final treatment of Compound A, the vascular permeability in oculus was investigated based on the leakage of dye into the vitreous 30 min after intravenous injection of fluorescein solution (40 mg/ml/kg). Permeability was expressed as vitreous/plasma ratio of fluorescein concentration measured by a fluorophotometer. At the same time, the plasma SSAO activity was checked by the radiochemical-enzyme assay using ^14C-benzylamine (2×10^−5 mol/l final concentration) as substrate.

Row | Structure (SMILES) | melting point | further results
1 | CC(=O)Nc1nc(CCc2ccc(CON)cc2)cs1 [Production Example 16, N-[4-(2-{4-[(aminooxy)methyl]phenyl}ethyl)-1,3-thiazol-2-yl]acetamide] | 130 to 130.5 °C | 
2 | CC(=O)Nc1nc(CCc2ccc(NC(=N)N)cc2)c(Cc2ccc(S(C)(=O)=O)cc2)s1 [Production Example 48, N-{4-[2-(4-{[amino(imino)methyl]amino}phenyl)ethyl]-5-[4-(methylsulfonyl)benzyl]-1,3-thiazol-2-yl}acetamide] | 228 to 229.5 °C | 
3 | CC(=O)Nc1nc(CCc2ccc(C(=O)NC(=N)N)cc2)c(Cc2ccc(S(C)(=O)=O)cc2)s1 [Production Example 106, 4-(2-{2-(acetylamino)-5-[4-(methylsulfonyl)benzyl]-1,3-thiazol-4-yl}ethyl)-N-[amino(imino)methyl]benzamide] | 108 to 109.5 °C | 
4 | CC(=O)Nc1nc(CCc2ccc(C(=N)N)cc2)cs1.Cl | 229.5 to 231 °C | 
5 | CC(=O)Nc1nc(CCc2ccc(NC(=N)N)cc2)cs1 [Compound A, N-{4-[2-(4-{[amino(imino)methyl]amino}phenyl)ethyl]-1,3-thiazol-2-yl}acetamide] |  | Inhibition of enzyme activity of human plasma SSAO (in words) (Human plasma SSAO): completely inhibited; Inhibition of enzyme activity of rat plasma SSAO (in words) (Rat plasma SSAO): completely inhibited; Plasma SSAO activity (plasma SSAO; STZ diabetic rats, daily treatment for 2 weeks from 2 weeks after STZ, 14C-benzylamine 2×10^−5 mol/l, mean±S.E.M., 10 rats): 2.51 ± 0.26 pmol/min/mL; Effect on increased plasma SSAO activity in diabetic rats (in words) (plasma SSAO; diabetic rats at 4 weeks after STZ treatment): dose-dependent inhibition of the increased plasma SSAO activity
6 | CC(=O)Nc1nc(CCc2ccc(NC(=N)N)cc2)c(C(=O)NCc2ccc([N+](=O)[O-])cc2)s1.Cl | 138 to 140 °C | 

Now from value to molecule, other results behind:

Row | melting point | Structure (SMILES) | further results
7 | 216.5 to 218 °C | CC(=O)Nc1nc(CCc2ccc(NC(=N)NN)cc2)cs1 [Production Example 58, N-{4-[2-(4-{[hydrazino(imino)methyl]amino}phenyl)ethyl]-1,3-thiazol-2-yl}acetamide] | 
8 | 190.5 to 192 °C | CC(=O)Nc1nc(CCc2ccc(CC(=N)N)cc2)cs1 (as salt: hydrochloride) [Production Example 59, N-(4-{2-[4-(2-amino-2-iminoethyl)phenyl]ethyl}-1,3-thiazol-2-yl)acetamide] | 
9 | 81.5 to 83 °C | CC(=N)Nc1ccc(CCc2nc(NC(C)=O)sc2Cc2ccc(S(C)(=O)=O)cc2)cc1 [Production Example 56, N-{4-{2-[4-(ethanimidoylamino)phenyl]ethyl}-5-[4-(methylsulfonyl)benzyl]-1,3-thiazol-2-yl}acetamide] | 
10 | 218 to 219.5 °C | CC(=O)Nc1nc(CCc2ccc(NC3=NCCS3)cc2)cs1 [Production Example 2, N-(4-(2-(4-(4,5-dihydro-1,3-thiazol-2-ylamino)phenyl)ethyl)-1,3-thiazol-2-yl)acetamide] | 
